Reference: US5043332A, “Novel 11β-substituted -19-nor-steriods” (priority 1981, dated 1991)

System: thymocytes of surrenalectomized rats
Assay: Antiglucocorticoidal activity, incorporation of tritiated uridine in thymocytes
Assay type: cell-based
Settings: for % inhibition of effect of Dexamethasone (symbol) / inhibition at 1 µM: 5 × 10^-8 M dexamethasone + test product 10^-6 M; for inhibition at 0.1 µM / inhibition at 0.01 µM / inhibition at 1 µM: Rattus norvegicus, Thymocyte, read-out: % inhibition of effect of Dexamethasone; for inhibition at 0.1 µM: 5 × 10^-8 M dexamethasone + test product 10^-7 M; for inhibition at 0.01 µM: 5 × 10^-8 M dexamethasone + test product 10^-8 M
Procedure: III. Antiglucocorticoidal Activity
The test used was that of Dausse et al [Molecular Pharmacology, Vol. 13 (1977), p. 948-955] entitled "The relationship between glucocorticoid structure and effects upon thymocytes" for […] thymocytes. The thymocytes of surrenalectomized rats were incubated at 37° C. for 3 hours in a nutritive medium containing 5×10^-8 M of dexamethasone in the presence or absence of the test compound at different concentrations. Tritiated uridine was added and incubation was continued for one hour. The incubates were cooled and treated with a 5% trifluoroacetic acid solution and the mixture was filtered with Whatman GF/A paper. The filter was washed 3 times with a 5% trifluoroacetic acid solution and retained radioactivity on the filter was determined.

Row | Compound | % inhibition of effect of Dexamethasone (symbol) | inhibition at 0.1 µM [%] | inhibition at 0.01 µM [%] | inhibition at 1 µM [%] | effect on incorporation of tritiated uridine (in words) (glucocorticoid alone)
1 | CC#C[C@]1(O)CC[C@H]2[C@@H]3CCc4cc(O)ccc4[C@H]3[C@@H](c3ccc(N(C)C)cc3)C[C@@]21C [2 (17 OH), 11β-(4-dimethylaminophenyl)-17α-(prop-1-ynyl)-Δ^1,3,5(10) -estratriene-3,17β-diol] | * (A dose of 10^-6 M inhibited the effect of dexamethasone totally) | 91 | 41 | – | –
2 | C/C=C/[C@]1(O)CC[C@H]2[C@@H]3CCC4=C(CCC(=O)C4)[C@H]3[C@@H](c3cccc(OC)c3)C[C@@]21C [6 (17α propenyle), 11β-(3-methoxyphenyl)-17α-(E)-(prop-1-enyl)-Δ^5(10) -estrene-17β-ol-3-one] | – | 0 | 0 | 56 | –
3 | CC#C[C@]1(O)CC[C@H]2[C@@H]3CCC4=CC(=O)C(=COC(C)=O)CC4=C3[C@@H](c3ccc(N(C)C)cc3)C[C@@]21C [Example 3, 2-(acetyloxymethylene)-11β-(4-dimethylaminophenyl)-17α-(prop-1-ynyl)-Δ^4,9-estradiene-17β-ol-3-one] | – | 0 | 0 | 60 | –
4 | CC#C[C@]1(O)CC[C@H]2[C@@H]3CCC4=CC(=O)C(=CN5CCOCC5)CC4=C3[C@@H](c3ccc(N(C)C)cc3)C[C@@]21C [Example 4, 2-(4-morpholinylmethylene)-11β-(4-dimethylaminophenyl)-17α-(prop-1-ynyl)-Δ^4,9-estradiene-17β-ol-3-one] | – | 0 | 0 | 51 | –
5 | CC#C[C@]1(O)CC[C@H]2[C@@H]3CCC4=C(CCC(=O)C4)[C@H]3[C@@H](c3cccc(OC)c3)C[C@@]21C [Example 6, 11β-(3-methoxyphenyl)-17α-(prop-1-ynyl)-Δ^5(10) -estrene-17β-ol-3-one] | – | 0 | 0 | 68 | –
6 | CC#C[C@]1(O)CC[C@H]2[C@@H]3CCC4=Cc5oncc5CC4=C3[C@@H](c3ccc(N(C)C)cc3)C[C@@]21C [Example 7, 11β-(4-dimethylaminophenyl)-17α-(prop-1-ynyl)-isoxazolo[4,5-b]-Δ^4,9-estradiene-17β-ol] | * (A dose of 10^-6 M inhibited the effect of dexamethasone totally) | 27 | 0 | – | –
7 | C[C@@H]1C[C@H]2[C@@H]3CCC4=CC(=O)C=C[C@]4(C)[C@@]3(F)[C@@H](O)C[C@]2(C)[C@@]1(O)C(=O)CO [dexamethasone, reference compound] | – | – | – | – | provoked a lessening of incorporation of tritiated uridine
